Measured values from paper PMC4583267, “Synthesis and Evaluation of Novel Triterpene Analogues of Ursolic Acid as Potential Antidiabetic Agent” (PLoS ONE, 2015).

Target: T1, α-glucosidase from baker's yeast (Saccharomyces cerevisiae, UniProt P53341)
T1 construct: purchased
Experiment: not given
Settings: S4 Table; analogues of previous work; cited from earlier work

T1 sequence (P53341 whole entry): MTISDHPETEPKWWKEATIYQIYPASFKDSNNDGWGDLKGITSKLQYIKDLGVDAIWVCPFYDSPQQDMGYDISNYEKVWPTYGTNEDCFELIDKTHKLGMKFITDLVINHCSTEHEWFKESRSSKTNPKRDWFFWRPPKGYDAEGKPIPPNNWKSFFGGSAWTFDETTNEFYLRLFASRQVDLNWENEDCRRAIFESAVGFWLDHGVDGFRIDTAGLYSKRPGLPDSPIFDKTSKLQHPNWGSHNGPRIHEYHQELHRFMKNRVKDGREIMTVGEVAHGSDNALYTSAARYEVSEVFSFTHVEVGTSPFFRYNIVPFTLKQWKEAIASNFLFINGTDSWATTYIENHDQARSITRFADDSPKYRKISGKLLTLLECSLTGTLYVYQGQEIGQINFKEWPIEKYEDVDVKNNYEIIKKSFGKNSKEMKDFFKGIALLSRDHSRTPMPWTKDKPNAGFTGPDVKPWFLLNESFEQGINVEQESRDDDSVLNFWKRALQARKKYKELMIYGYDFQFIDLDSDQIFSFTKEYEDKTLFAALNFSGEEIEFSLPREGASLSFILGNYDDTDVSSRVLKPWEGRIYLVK

Row | Compound | Observed pIC50
1 | CC(=O)O[C@H]1CC[C@@]2(C)C(CC[C@]3(C)C2CC=C2C4[C@@H](C)[C@H](C)CC[C@]4(C(=O)O)CC[C@]23C)C1(C)C (stereo partly shown) [Analogue 2] | 5.278
2 | CC(=O)O[C@H]1CC[C@@]2(C)C(CC[C@]3(C)C2CC=C2C4[C@@H](C)[C@H](C)CC[C@]4(C(=O)Nc4ccccc4F)CC[C@]23C)C1(C)C (stereo partly shown) [Analogue 4a] | 4.848
3 | CC(=O)O[C@H]1CC[C@@]2(C)C(CC[C@]3(C)C2CC=C2C4[C@@H](C)[C@H](C)CC[C@]4(C(=O)Nc4ccccc4)CC[C@]23C)C1(C)C (stereo partly shown) [Analogue 3a] | 5.249
4 | CC(=O)O[C@H]1CC[C@@]2(C)C(CC[C@]3(C)C2CC=C2C4[C@@H](C)[C@H](C)CC[C@]4(C(=O)Nc4ccc(Br)cc4)CC[C@]23C)C1(C)C (stereo partly shown) [Analogue 9a] | 5.030
5 | CC(=O)O[C@H]1CC[C@@]2(C)C(CC[C@]3(C)C2CC=C2C4[C@@H](C)[C@H](C)CC[C@]4(C(=O)Nc4ccccc4Br)CC[C@]23C)C1(C)C (stereo partly shown) [Analogue 6a] | 4.954
6 | CC(=O)O[C@H]1CC[C@@]2(C)C(CC[C@]3(C)C2CC=C2C4[C@@H](C)[C@H](C)CC[C@]4(C(=O)Nc4ccc(Cl)cc4)CC[C@]23C)C1(C)C (stereo partly shown) [Analogue 8a] | 5.489
7 | CC(=O)O[C@H]1CC[C@@]2(C)C(CC[C@]3(C)C2CC=C2C4[C@@H](C)[C@H](C)CC[C@]4(C(=O)Nc4ccc(F)cc4)CC[C@]23C)C1(C)C (stereo partly shown) [Analogue 7a] | 5.185
8 | CC(=O)O[C@H]1CC[C@@]2(C)C(CC[C@]3(C)C2CC=C2C4[C@@H](C)[C@H](C)CC[C@]4(C(=O)Nc4ccccc4Cl)CC[C@]23C)C1(C)C (stereo partly shown) [Analogue 5a] | 4.481

Same assay, conditions: values of earlier work; cited from earlier work

Row | Compound | IC50 [µM]
9 | CC(=O)O[C@H]1CC[C@@]2(C)C(CC[C@]3(C)C2CC=C2C4[C@@H](C)[C@H](C)CC[C@]4(C(=O)O)CC[C@]23C)C1(C)C (stereo partly shown) [Analogue 2] | 5.27 ± 0.35
10 | CC(=O)O[C@H]1CC[C@@]2(C)C(CC[C@]3(C)C2CC=C2C4[C@@H](C)[C@H](C)CC[C@]4(C(=O)Nc4ccccc4)CC[C@]23C)C1(C)C (stereo partly shown) [Analogue 3a] | 5.64 ± 1.12
11 | CC(=O)O[C@H]1CC[C@@]2(C)C(CC[C@]3(C)C2CC=C2C4[C@@H](C)[C@H](C)CC[C@]4(C(=O)Nc4ccc(Cl)cc4)CC[C@]23C)C1(C)C (stereo partly shown) [Analogue 8a] | 3.24 ± 0.21

Target: T1, α-glucosidase from baker's yeast
Experiment: biochemical
Settings: not given
Experimental: A stock solution of each sample, which has been dissolved in dimethylsulfoxide (DMSO) at the concentrations of 0.05 μM to 500 μM, was diluted with 0.1 M phosphate buffer solution (pH = 6.8) containing an appropriate concentration of enzyme solution (0.1 U/mL). After a 10 min pre-incubation at 37°C of the reactions, the substrate (1mM p-nitrophenyl-α-D-glucopyranoside) was added to initiate them. Then the reactions were incubated for 30 min at 37°C before they were terminated by adding 1 M Na2CO3, and their optical density values were measured at 405 nm by using a Multimodel Plate Reader (Infinite 200). Each experiment was repeated at least four times.
To determine the inhibition activity of each sample, the enzyme activity was measured at a fixed substrate concentration, in which a sequence of sample concentrations were tested. The IC50 value was calculated according to the curve fit to the sequence of concentrations versus the corresponding inhibition abilities. The results were illustrated in Table 1 and Fig 3.
The α-glucosidase inhibition assay was performed according to the method of Worawalai et al. with a slight modification. The α-glucosidase enzyme (0.1 U/mL) and substrate (1 mM p-nitrophenyl-α-D-glucopyranoside) were dissolved in 0.1 M phosphate buffer, pH 6.8. 10 μL of each synthesized analogue (1 mg/mL in DMSO) was pre-incubated with 8 μL of α-glucosidase at 37°C for 10 min. A 100 μL of substrate solution was then added to the reaction mixture, which was further incubated at 37°C for 30 min. Then, the reaction was terminated by adding 100 μL of 1 M Na2CO3 solution. Enzymatic activity was quantified by measuring the absorbance at 405 nm with a use of a Multimodel Plate Reader (Infinite 200). The percentage of inhibition was calculated by using [(A 0-A 1)/A 0]×100%, where A 0 was the absorbance without the sample, and A 1 was the absorbance with the sample. The IC50 value was determined from a plot of the percentage of inhibition versus the sample concentration.

Row | Compound | IC50 [µM]
12 | C[C@@H]1CC[C@]2(C(=O)O)CC[C@]3(C)C(=CCC4[C@@]5(C)CCC(=O)C(C)(C)C5CC[C@]43C)C2[C@H]1C (stereo partly shown) [Analogue 11, 3-Oxo-urs-12-en-28-oic acid] | 2.47
13 | C[C@H]1[C@H](C)CC[C@]2(C(=O)O)CC[C@]3(C)C(=CC[C@@H]4[C@@]5(C)CC[C@H](O)C(C)(C)[C@@H]5CC[C@]43C)[C@H]12 [Analogue 1, 3β-hydroxy-urs-12-en-28-oic acid, reference compound] | 5.08 ± 0.7

Same assay, conditions: Table 1; read-out: Observed pIC50 (converted)

Row | IC50 [µM] | Compound
14 | 1.31 | C[C@@H]1CC[C@]2(C(=O)Nc3ccccc3Cl)CC[C@]3(C)C(=CCC4[C@@]5(C)CC[C@H](O)C(C)(C)C5CC[C@]43C)C2[C@H]1C (stereo partly drawn) [Analogue 5b, N-[3β-Hydroxy-urs-12-en-28-oyl]-o-chloroaniline]
15 | 1.69 | C[C@@H]1CC[C@]2(C(=O)Nc3ccccc3)CC[C@]3(C)C(=CCC4[C@@]5(C)CC[C@H](O)C(C)(C)C5CC[C@]43C)C2[C@H]1C (stereo partly drawn) [Analogue 3b, N-[3β-Hydroxy-urs-12-en-28-oyl]-aminobenzene]
16 | 1.28 | C[C@@H]1CC[C@]2(C(=O)Nc3ccc(Br)cc3)CC[C@]3(C)C(=CCC4[C@@]5(C)CC[C@H](O)C(C)(C)C5CC[C@]43C)C2[C@H]1C (stereo partly drawn) [Analogue 9b, N-[3β-Hydroxy-urs-12-en-28-oyl]-p-bromoaniline]
17 | 1.67 | C[C@@H]1CC[C@]2(C(=O)Nc3ccc(F)cc3)CC[C@]3(C)C(=CCC4[C@@]5(C)CC[C@H](O)C(C)(C)C5CC[C@]43C)C2[C@H]1C (stereo partly drawn) [Analogue 7b, N-[3β-Hydroxy-urs-12-en-28-oyl]-p-fluoroaniline]
18 | 1.27 | C[C@@H]1CC[C@]2(C(=O)Nc3ccc(Cl)cc3)CC[C@]3(C)C(=CCC4[C@@]5(C)CC[C@H](O)C(C)(C)C5CC[C@]43C)C2[C@H]1C (stereo partly drawn) [Analogue 8b, N-[3β-Hydroxy-urs-12-en-28-oyl]-p-chloroaniline]
19 | 2.56 | C[C@@H]1CC[C@]2(C(=O)Nc3ccccc3Br)CC[C@]3(C)C(=CCC4[C@@]5(C)CC[C@H](O)C(C)(C)C5CC[C@]43C)C2[C@H]1C (stereo partly drawn) [Analogue 6b, N-[3β-Hydroxy-urs-12-en-28-oyl]-o-bromoaniline]
20 | 2.55 | COc1ccc(NC(=O)[C@]23CC[C@@H](C)[C@H](C)C2C2=CCC4[C@@]5(C)CC[C@H](O)C(C)(C)C5CC[C@@]4(C)[C@]2(C)CC3)cc1 (stereo partly drawn) [Analogue 10b, N-[3β-Hydroxy-urs-12-en-28-oyl]-p-methoxylaniline]
21 | 1.51 | C[C@@H]1CC[C@]2(C(=O)Nc3ccccc3F)CC[C@]3(C)C(=CCC4[C@@]5(C)CC[C@H](O)C(C)(C)C5CC[C@]43C)C2[C@H]1C (stereo partly drawn) [Analogue 4b, N-[3β-Hydroxy-urs-12-en-28-oyl]-o-fluoroaniline]

Row | Compound | IC50 [µM]
22 | COc1ccc(NC(=O)[C@]23CC[C@@H](C)[C@H](C)C2C2=CCC4[C@@]5(C)CC[C@H](OC(C)=O)C(C)(C)C5CC[C@@]4(C)[C@]2(C)CC3)cc1 (stereo partly drawn) [Analogue 10a, N-[3β-acetoxy-urs-12-en-28-oyl]-p-methoxyamiline] | 2.01
